Results: patent US9549942B2, “Composition for preventing or treating degenerative brain diseases including compound downregulating expression of BACE1 proteins” (RESEARCH & BUSINESS FOUNDATION SUNGKYUNKWAN UNIVERSITY, priority 2013, dated 2017)
Where a name gives a salt, the structure may show the parent alone.

Each compound was assayed on BACE1 proteins (assay: Amount of expression of BACE1 proteins in brain nerve cells (Western blot)). Settings: SH-SY5Y cells, treated 24 hours at 0.001, 0.01 and 0.1 μM, actin control.
Assay type: cell-based, human
Method: As brain nerve cells, human neuroblastoma cells SH-SY5Y were used. […] The SH-SY5Y cells were plated at 5×10^5 cells/well into a 6-well plate. […] Then, the amount of expression of BACE1 proteins was determined by Western blot. Actin was used throughout as a control.

SMILES	amount of expression of BACE1 proteins
CC(C)=CCC/C(C)=C/CC/C(C)=C/CO [farnesol]	decreased at 0.01 μM and 0.1 μM

Same assay, conditions: SH-SY5Y cells, treated 24 hours at 0.625, 1.25, 2.5, 5 and 10 μM, actin control

SMILES	amount of expression of BACE1 proteins
COC(=O)Nc1nc2cc(Sc3ccccc3)ccc2[nH]1 [fenbendazole]	decreased at 0.625 μM to 10 μM
COC(=O)Nc1nc2cc(C(=O)c3ccccc3)ccc2[nH]1 [mebendazole]	decreased at 0.625 μM to 10 μM

These compounds were tested on BACE1 promoter (assay: BACE1 promoter activity, BACE1 promoter-luciferase vector, Dual-Luciferase assay). Settings: Homo sapiens, SH-SY5Y, 24 h, read-out: decrease of BACE1 promoter activity.
Assay type: cell-based
Method: A BACE1 promoter-luciferase vector was transfected to brain nerve cells (SH-SY5Y). […] A change in a BACE1 promoter activity was measured using a Dual-Luciferase assay kit.

SMILES	inhibition at 10 µM [%]
COc1cc2c(c(OC)c1OC)-c1ccc(OC)c(=O)cc1[C@@H](NC(C)=O)CC2 [colchicine]	≥ 50
COc1ccc2c(c1)[nH]c1c(C)nccc12 [harmine hydrochloride]	≥ 50
C=C(NC(=O)C(=C)NC(=O)c1csc(C2=N[C@@H]3c4csc(n4)[C@H]4NC(=O)c5csc(n5)[C@H]([C@](C)(O)[C@@H](C)O)NC(=O)[C@H]5CSC(=N5)/C(=C/C)NC(=O)[C@H]([C@@H](C)O)NC(=O)c5csc(n5)[C@]3(CC2)NC(=O)[C@H](C)NC(=O)C(=C)NC(=O)[C@H](C)NC(=O)[C@H]([C@@H](C)CC)N[C@@H]2C=Cc3c([C@H](C)O)cc(nc3[C@H]2O)C(=O)O[C@@H]4C)n1)C(N)=O [thiostrepton]	≥ 50

Same assay, conditions: Homo sapiens; SH-SY5Y transfected with BACE1 promoter-luciferase vector, 10 μM for 24 hours; read-out: decrease of BACE1 promoter activity

SMILES	inhibition at 10 µM [%]
Clc1cnccn1 [2-chloropyrazine]	≥ 50
Cn1cnc([N+](=O)[O-])c1Sc1ncnc2nc[nH]c12 [azathioprine]	≥ 50
O=C1Nc2ccc(Cl)cc2[C@@](C#CC2CC2)(C(F)(F)F)O1 [efavirenz]	≥ 50
CCN(CC)C(=O)/C(C#N)=C/c1cc(O)c(O)c([N+](=O)[O-])c1 [entacapone]	≥ 50
CC(C)=CCC/C(C)=C/CC/C(C)=C/CO [farnesol]	≥ 50
COC(=O)Nc1nc2cc(Sc3ccccc3)ccc2[nH]1 [fenbendazole]	≥ 50
CC1(C)O[C@@H]2C[C@H]3[C@@H]4C[C@H](F)C5=CC(=O)C=C[C@]5(C)[C@H]4[C@@H](O)C[C@]3(C)[C@]2(C(=O)CO)O1 [flunisolide]	≥ 50
CC[C@H](c1ccc(O)cc1)[C@@H](CC)c1ccc(O)cc1 [hexestrol]	≥ 50
COC(=O)Nc1nc2cc(C(=O)c3ccccc3)ccc2[nH]1 [mebendazole]	≥ 50
CCN(CCCCOC(=O)c1ccc(OC)c(OC)c1)C(C)Cc1ccc(OC)cc1 (stereo not drawn) [mebeverine hydrochloride]	≥ 50
CC[C@@]1([C@@H]2O[C@@H]([C@H]3O[C@@](O)(CO)[C@H](C)C[C@@H]3C)C[C@@H]2C)CC[C@H]([C@]2(C)CC[C@]3(C[C@H](O)[C@@H](C)[C@@H]([C@@H](C)[C@@H](OC)[C@H](C)C(=O)O)O3)O2)O1 [monensin sodium salt]	≥ 50
CCCN(CCC)S(=O)(=O)c1ccc(C(=O)O)cc1 [probenecid]	≥ 50
O=C(c1ccc(OCCN2CCCCC2)cc1)c1c(-c2ccc(O)cc2)sc2cc(O)ccc12 [raloxifene hydrochloride]	≥ 50
Nc1ccc(S(=O)(=O)Nc2cnc3ccccc3n2)cc1 [sulfaquinoxaline sodium salt]	≥ 50
CC[C@@]1(O)C(=O)OCc2c1cc1n(c2=O)Cc2cc3c(CN(C)C)c(O)ccc3nc2-1 [topotecan]	≥ 50
NC1CCN(c2nc3c(cc2F)c(=O)c(C(=O)O)cn3-c2ccc(F)cc2F)C1 (stereo not drawn) [tosufloxacin hydrochloride]	≥ 50
COc1cc(C(=O)NCc2ccc(OCCN(C)C)cc2)cc(OC)c1OC [trimethobenzamide hydrochloride]	≥ 50
CCCOc1ccccc1-c1nc2nn[nH]c2c(=O)[nH]1 [zaprinast]	≥ 50
